Reference: patent US5652222A, “Selective inhibition of leukemic cell proliferation by bcr-abl antisense oligonucleotides” (Temple University-of The Commonwealth System of Higher …, priority 1993, dated 1997)

Legend:
Assay type in all cases: cell-based, human
[1] = system: Philadelphia chromosome-positive blast cells of CML patients in blast crisis, L-6 (b2a2) type junction; experiment: Colony formation of CML blast crisis patient cells expressing the b2a2 (L-6) junction; settings: 10 days in semi-solid culture (FIG. 2)
Description: Leukemia cells were obtained from the marrow of the posterior iliac crest of five CML patients in blast crisis. The cells were diluted 1:2 in Iscove's modified Dulbecco medium (IMDM) to form a cell suspension. Philadelphia chromosome-positive blast cells were isolated by Ficoll-Hypaque density gradient sedimentation to remove non-mononuclear cells. Accordingly, the bone marrow cell suspension was gently overlayed on a Histopaque density gradient (Sigma Chemical Co., St. Louis, Mo.) in a 2:1 ratio, and then spun down for 30 min. at 1500 rpm and 18° C. Cells remaining in the interface layer after centrifugation were collected using a Pasteur pipet, and washed with IMDM at 1000 rpm and […] for 10 min.
Cells plated into methyl cellulose semisolid media after 7-11 days of culture were recovered from the medium. Total RNA was isolated according to the procedure of Chomczynski et al, Anal. Biochem. 162, 156-159 (1987). The RNA ([…]) isolated from one patient having particularly exuberant cell growth was annealed with the 3' RT-PCR primer GCTTCACACC ATTCCCCATTGT (SEQ ID NO:10) complementary to 22 nucleotides of c-abl exon 2 for 30 minutes at 37° C. Following annealing of the 3' primer, the RNA was reverse transcribed with 500 units of Moloney murine leukemia virus reverse transcriptase at 37° C. for 1 hour. The reaction was stopped and the mixture diluted in 1 x Thermus aquaticus (Taq) polymerase buffer. A 5' primer, the 22 nucleotide oligomer CACAGCATTCCGCTGACCATCA (SEQ ID NO: 11) complementary to bcr exon 2 and additional c-abl exon 2 3' primer were added to a final concentration of 2 ng/μl each with 2.5 units of Taq polymerase for amplification of the cDNA fragments. Sixty cycles of PCR were performed in a Perkin Elmer Thermal Cycler by annealing at 55° C., synthesizing at 72° C. and denaturing at 95° C. The amplification product, corresponding to the b2a2 junction, was thereafter separated on a 2% agarose gel. The band containing the bcr-abl fragment was cut out and cleaned according to a standard technique utilizing a GENE-CLEAN™ kit (Bio 101, Inc.), cloned by blunt end ligation in the BLUESCRIPT SK vector (Stratagene Cloning Systems) linearized by SMA I digestion. Several individual clones were then sequenced using the SEQUENASE™ version 2.0 enzyme (United States Biochemical Corp., Cleveland, Ohio), according to the sequence protocol recommended by the manufacturer. Accordingly, the denatured bcr-abl DNA fragments were annealed with specific primers which flank the cloning site in the BLUESCRIPT SK vector, in the presence of SEQUENASE™ reaction buffer for 15 min. at 37° C. The primer-annealed fragments were incubated at room temperature with SEQUENASE™ version 2.0 enzyme and α-S^35 dAT at 37° C. Subsequently, labelled template-primer complexes were transferred to tubes containing A, T, C and G nucleotides (one nucleotide per tube) and incubated 5-30 min. at 37° C. The samples were then loaded on a previously prepared acrylamide gel, and run for approximately 10 hours. The sequencing gel was dryed, and the film exposed O/N. Sequence analysis of several of the individual clones identified the bcr-abl junction as having the cDNA sequence shown in FIG. 1 (SEQ ID NO:1). The arrow in the figure indicates the bcr-abl breakpoint junction, and the box delineates the 18 nucleotides corresponding to the junction, which forms a preferred target sequence for hybridization of antisense oligomer. The junction corresponds precisely to the L-6 type breakpoint reported by Shtivelman et al., Cell 47, 277 (1986), in which the bcr exon 2 is fused to c-abl exon 2.
In a similar manner, L-6 type junctions were identified in the remaining CML blast crisis patients by hybridization of RT-PCR amplification products derived from blast crisis CML RNA using a synthetic 18-mer GAAGGGCTTC TTCCTTAT (SEQ ID NO:3) specific for the 18-nucleotide target sequence of the L-6 bcr-abl junction. […]

[2] = system: 1:1 mixtures of normal marrow progenitors and CML blast crisis cells; experiment: CFU-GM + CFU-L colony formation of 1:1 mixtures of normal marrow progenitors and CML blast crisis cells; settings: Table 3; 1:1 mixture; 40 μg/ml at 0 h, 20 μg/ml 18 h later; 12 days; mean ± SD; control 978 ± 24
Excerpt: (§1) Normal bone marrow mononuclear cells (MNC) were obtained by aspiration from consenting volunteers and enriched for hematopoietic progenitors as previously reported by numerous investigators (Zamecnick et al., Proc. Natl. Acad. Sci. U.S.A. 83, 4143-4147 (1986); Caracciolo et al., J. Clin. Invest. 85, 55-61 (1990)). In brief, marrow cells were subjected to Ficoll-Hypaque density gradient sedimentation and then depleted of adherent monocyte-macrophage and T-lymphocytes by adherence to plastic Petri dishes and rosetting with neuraminidase-treated sheep red blood cells, respectively. Philadelphia chromosome-positive blast cells were isolated by Ficoll-Hypaque density gradient sedimentation from a CML patient in blast crisis (L-6 type junction). […] The residual non-blast cells had the morphological appearance of small lymphocytes. 25,000 MNC and 25,000 CML blast cells were combined and incubated with bcr-abl breakpoint-Specific antisense oligomer (SEQ ID NO:3) (40 μg/ml at h 0; 20 μg/ml 18 hours later) or with a 4 nucleotide mismatch bcr-abl antisense oligomer (SEQ ID NO:2) (40 μg/ml at 0 h; 20 μg/ml 18 hours later) or left untreated. […] At the end of the incubation period colonies were counted. […]

[3] = system: normal hematopoietic progenitor cells (normal bone marrow MNC); experiment: CFU-GM colony formation of normal hematopoietic progenitor cells; settings: Table 3; 40 μg/ml at 0 h, 20 μg/ml 18 h later; 12 days; mean ± SD; control 263 ± 10
Excerpt: as §1

[4] = system: CML blast crisis cells (L-6 type junction); experiment: CFU-L colony formation of CML blast crisis cells (Example 3); settings: Table 3; 40 μg/ml at 0 h, 20 μg/ml 18 h later; 12 days; mean ± SD; control 806 ± 70
Excerpt: Normal bone marrow mononuclear cells (MNC) were obtained by aspiration from consenting volunteers and enriched for hematopoietic progenitors as previously reported by numerous investigators (Zamecnick et al., Proc. Natl. Acad. Sci. U.S.A. 83, 4143-4147 (1986); Caracciolo et al., J. Clin. Invest. 85, 55-61 (1990)). In brief, marrow cells were subjected to Ficoll-Hypaque density gradient sedimentation and then depleted of adherent monocyte-macrophage and T-lymphocytes by adherence to plastic Petri dishes and rosetting with neuraminidase-treated sheep red blood cells, respectively. Philadelphia chromosome-positive blast cells were isolated by Ficoll-Hypaque density gradient sedimentation from a CML patient in blast crisis (L-6 type junction). […] The residual non-blast cells had the morphological appearance of small lymphocytes. 25,000 MNC and 25,000 CML blast cells were combined and incubated with bcr-abl breakpoint-Specific antisense oligomer (SEQ ID NO:3) (40 μg/ml at h 0; 20 μg/ml 18 hours later) or with a 4 nucleotide mismatch bcr-abl antisense oligomer (SEQ ID NO:2) (40 μg/ml at 0 h; 20 μg/ml 18 hours later) or left untreated. Four hours after the second addition of oligonucleotides to the cultures, cells were seeded into duplicate methylcellulose dishes containing IL-3 (20 U/ml) and GM-CSF (5 ng/ml) and allowed to grow for an additional 12 days. At the end of the incubation period colonies were counted.
The data is shown in Table 3, below, wherein values represent mean ± standard deviation of duplicate control cultures (no oligonucleotide added) and duplicate experimental cultures from two separate experiments. Colony forming unit-granulocyte macrophage (CFU-GM)-derived colonies consisted of 50 or more cell aggregates, while CFU-GM-derived clusters were defined as aggregates of between 4 and 40 cells. These are normal hematopoietic colonies derived from progenitors with the capability to differentiate along the granulocytic and macrophage lineages. […]

[5] = system: 1:1 mix of normal MNC and CML blast crisis cells; experiment: Morphology (Giemsa staining) of cells from residual colonies
Excerpt: as §1

Substance: SEQ ID NO:2: mismatched (4 nucleotide substitutions) bcr-abl antisense oligomer GAACGGCATC TACGTTAT (antisense GAACGGCATCTACGTTAT; further chemistry not given here) [reference compound]
- colonies of blast cells formed [1]: formed numerous colonies of blast cells
- Colonies or Clusters, CFU-GM + CFU-L [2]: 900 ± 46 colonies or clusters
- Colonies or Clusters, CFU-GM [3]: 265 ± 6 colonies or clusters
- Colonies or Clusters, CFU-L (colonies formed from CML blast crisis cells) [4]: 786 ± 23 colonies or clusters
- morphology of cells isolated from residual colonies [5]: heterogeneous and consisted of blast cells and a variety of differentiating elements
